The source of these data is PMC11061149, “Protein mimetic 2D FAST rescues alpha synuclein aggregation mediated early and post disease Parkinson’s phenotypes” (Nature Communications, 2024).

For series [1], the target named is T1, α-Synuclein (αS) aggregation (Homo sapiens, UniProt P37840).
T1 construct: made in house; host or cells: E. coli BL21(DE3)
As to the kind of experiment: Thioflavin T (ThT) dye-based αS aggregation assay (de novo). Type of series: biochemical. The note with it: for ThT intensity relative to Synuclein alone (=1), Average / ThT intensity relative to Synuclein alone (=1), Trial 1-3: 100 µM αS, four days; for remaining activity at 100 µM: 96 h, pH 6.5, 100 μM αS, 1×PBS pH 6.5, four days, ligand:αS equimolar, read-out: ThT signal/intensity relative to αS alone (100%). On the procedure: We used a 2D FAST approach in OPs to identify potent antagonists of the aggregation of αS. In this approach, we start with a library of monopyridyls with different functional groups. The library of monopyridyls was synthesized using 2-chloro-6-methyl-3-nitropyridine as a common precursor, which was treated with primary alcohols with diverse side chain functionalities via a one-pot reaction (Fig. 1B, a and see Supplementary information for synthetic details). […] We selected the side chains containing hydrophobic, polar, positively charged, and negatively charged functional groups, which mimic the side chains of the amino acids (Fig. 1C). […] The monopyridyl library was screened against the aggregation of 100 μM αS at an equimolar ratio using Thioflavin T (ThT) dye-based aggregation assay (Fig. 1B, b). […] The chloro-dipyridyl was reacted with a library of primary amines/thiols to synthesize a library of dipyridyls (Fig. 1B, e) using a one-pot reaction. […] However, a few dipyridyls required column chromatography to separate them from the starting material side chains because of their very high boiling point (7 out of 21 dipyridyls required column, Supplementary Fig. 1). […]
Aggregation Kinetics were measured according to a previously described protocol. […] The solutions were placed in a ThermoMixer (Eppendorf, Hamberg, Germany) at 37 °C with constant shaking at 1300 rpm (rpm). At different time points, 5 μL aliquots of each αS solution were added to 95 μL PBS containing 50 μM Thioflavin T (ThT) dye in a Costar black 96 well plate (Corning Inc., Kennebunk, ME). ThT fluorescence intensity was measured (λex = 450 nm and λem = 490 nm) on an Infinite M200PRO plate reader (Tecan, Männedorf, Switzerland), and plotted against time to give a sigmoidal curve typical of amyloid aggregation. For the single point ThT aggregation, 100 μM αS, in the absence and presence of ligands, was aggregated under the described conditions and the ThT fluorescence was reported at 96 h. The reported ThT intensity values are the average of each experiment conducted in triplicate, with the error bars representing the standard deviations or standard error of the mean (s.e.m.) as described in the main manuscript.

The target of another series is T2, αS aggregation (Homo sapiens, UniProt P37840).
T2 construct: made in house; host or cells: E. coli BL21(DE3)
As to the kind of experiment: SDS-PAGE gel shift assay of soluble and insoluble αS fractions. Type of series: biochemical. The note with it: for αS band intensity, Total: individual trials. An excerpt:
The inhibition of αS aggregation by NS41 was also confirmed by TEM images, which show an abundance (Supplementary Fig. 3a) and low amount (Supplementary Fig. 3b) of αS fibers in the absence and presence of NS41, respectively. We used SDS-PAGE (Sodium dodecyl sulfate polyacrylamide gel electrophoresis) as a complementary assay to validate ThT results and to further characterize the antagonist activity of the monopyridyls against αS aggregation. We used a total of four monopyridyls with varying antagonist activity against αS aggregation for the SDS-PAGE assay. The solutions of αS (±monopyridyls) were centrifuged and the soluble and insoluble fractions were subjected to SDS-PAGE analysis as reported earlier (Fig. 2d, Supplementary Fig. 4a, see details in methods section). The band intensities of the gels in SDS-PAGE assay were quantified using ImageJ software. In the absence of ligands, ~12% of αS was found in the soluble fraction and the rest was found in the insoluble fraction (Fig. 2d, Supplementary Fig. 4a, b). In the presence of NS41 at molar ratios of 1:1 and 2:1 (NS41:αS), 48% and 73% of αS protein were found in the soluble fraction, respectively, and the rest of αS protein was found in the insoluble fraction (Fig. 2d, Supplementary Fig. 4a, b). […] The antagonist activity of the monopyridyls corroborated well from both ThT and the SDS-PAGE assays (Fig. 2a–d, Supplementary Fig. 4a, b). The higher the antagonist activity of monopyridyls against αS aggregation, the lower the ThT intensity and the higher the amount of αS remained in the soluble fraction (Fig. 2a–d, Supplementary Fig. 4a, b). […] It is important to note that NS41 contains a carboxyl (COOH) functional group side chain. […] We have also shown in that work that the foldamer binds to the N-terminus of αS because of its negatively charged COOH functional group interaction with the positively charged lysine residues of αS[24]. […] Additionally, we have also shown that the OPs with the COOH functional group are very effective inhibitors of aggregation of other amyloid proteins that contain lysine amino acid via the formation of salt bridges[30]–[34].
An αS solution (100 µM) was prepared in PBS with or without ligands and shaken ([…], 37 °C) until the fluorescence plateaued, as observed using the ThT aggregation assay, indicative of the aggregation of αS as a control (four days for most experiments unless otherwise mentioned). The solutions were separated into soluble and insoluble fractions by centrifugation at 22,000 × g for 20 min. The fractions were diluted in 2×Laemmli protein sample loading buffer (Containing 2.1% SDS, Bio-rad, Hercules, CA), boiled at 95 °C for 5 min, and ran on a 12% Mini-PROTEAN precast protein gel (Bio-rad, Hercules, CA). The gel was visualized using ChemiDoc MP Imaging System (Bio-rad, Hercules, CA) and band intensity was quantified using Image Lab image acquisition and analysis software (Bio-rad, Hercules, CA). Densitometry values were averaged from three technical replicates and reported with the error bars representing their standard deviations.
On the technique in general: A gel shift assay detects complexes by their altered migration in electrophoresis.

A further series concerns the target T3, αS fibers (Homo sapiens, UniProt P37840).
T3 construct: made in house; host or cells: E. coli BL21(DE3)
The experiment in a line: Transmission electron microscopy (TEM) of αS solutions. Type of series: biochemical. Particulars: 100 µM αS aggregated for four days with ligand. On the procedure: Transmission Electron Microscopy was used to visualize protein assemblies after aggregation experiments as previously described. Briefly, aliquots (5 μL) of αS solutions (with or without ligands) were applied on glow-discharged carbon-coated 300-mesh copper grids for 2 min and dried using Kimwipes (Kimberly-Clark, Irving, TX). The copper grids were negatively stained for 1 min with uranyl acetate (0.75%, w/v). The micrographs were taken on an FEI Tecnai G2 Biotwin TEM at 80 kV accelerating voltages.

The next series has as its system UA196 worms. As to the kind of experiment: Motility assay of UA196 worms in the presence of dopamine and NS163. Type of series: in vivo, C. elegans. Particulars: for Motility of worms, UA196+Dopamine: individual trials. The protocol: This motility assay was performed exactly as the previous assay with slight adjustment in the preparation of the plates for the treatment of UA196 worms. For this assay, the only difference is the 24 well plates were prepared with 2 mM dopamine (referred to as PLATE 5) and both 2 mM dopamine and 50 µM NS163 (referred to as PLATE 6). To prepare PLATE 5, the NGM media containing 75 µM FUDR was autoclaved and poured in NGM plates (2 mL total liquid). After 12 h, the NGM plates were seeded with 350 µL of OP50 (with OD = 0.5 at 600 nm) at 20 °C. After 12 h, 2 mM dopamine dissolved in M9 buffer (total volume = 300 µL) was spotted atop the NGM plates at 20 °C. To prepare PLATE 6, the NGM media containing 75 µM FUDR was autoclaved and poured in NGM plates (2 mL total liquid). After 12 h, the NGM plates were seeded with 350 µL of OP50 (with OD = 0.5 at 600 nm) at 20 °C. After 12 h, NS163 (50 µM, stock conc. = […] in DMSO) and dopamine (2 mM in M9 buffer) were dissolved in M9 buffer (total volume = 300 µL) and were spotted atop the NGM plates at 20 °C. The NGM plates treated with dopamine and NS163 and dopamine were placed in sterile laminar flow hood at 20 °C for 1 h. The NGM plates treated with dopamine and NS163 and dopamine were prepared and used within 24 h.
There were six conditions for this experiment: (1) N2 worms, (2) N2 worms treated with 2 mM dopamine, (3) UA196 worms, (4) UA196 worms treated with 2 mM dopamine, (5) UA196 worms treated with 50 µM NS163, and (6) UA196 worms treated with 2 mM dopamine and 50 µM NS163. For each condition, four biological replicates were performed, and each biological replicate consisted of four technical replicates (four wells). For each condition, the data were expressed as mean and the error bars report the s.e.m. (n = 4 independent experiments and each n consisted of a total of four technical replicates).

“And” between values parts separate entries of the source, which are not always exact repeats. Identical values can stand only once.

As for `Cc1ccc(NC(=O)c2ccc([N+](=O)[O-])c(NCC3CCCCC3)n2)c(OCC(=O)O)n1` [NS55], the “ThT fluorescence intensity, Average” value stood at 638.333 in series [1] (100 µM αS + equimolar ligand, aggregation profile Fig. 2h, time 0 hr); 699.667 in series [1] (Fig. 2h profile, time 12 hr); 689.333 in series [1] (Fig. 2h profile, time 24 hr); 722.667 in series [1] (Fig. 2h profile, time 48 hr); 793 in series [1] (Fig. 2h profile, time 72 hr); 631.333 in series [1] (Fig. 2h profile, time 96 hr). Moreover, the “ThT fluorescence intensity, Average” value in series [1] (Fig. 2h profile, time 144 hr) is given as 658.333; in series [1] (Fig. 2h profile, time 192 hr), 603.333; in series [1] (Fig. 2h profile, time 300 hr), 570.333. For the same compound, in series [1] (100 μM αS, equimolar), the “attenuation of the ThT signal of αS aggregation” value worked out at 96%. Besides, the “ThT intensity relative to Synuclein alone (=1), Average” value in series [1] (equimolar) was found to be 0.04101; in series [1] (substoichiometric αS:ligand 1:0.5), 0.7474. Besides, the “ThT intensity relative to Synuclein alone (=1), Trial 1-3” value in series [1] (equimolar, individual trials) is 0.05227 and 0.03887 and 0.03187; in series [1] (substoichiometric αS:ligand 1:0.5, individual trials), 0.775 and 0.733 and 0.7343. In series [1], the remaining activity at 100 µM came to 4%. Besides, the “Relative ThT intensity of αS aggregation, Average” value in series [1] (sheet S5A, Synuclein alone about 1) is listed as 0.04101. In series [1] (sheet S5A, Synuclein alone about 1, individual trials), the “Relative ThT intensity of αS aggregation” value is 0.05227 and 0.03887 and 0.03187. For the same compound, the “amount of αS in the insoluble fraction” value on αS aggregation (100 µM αS, four days, equimolar) came to 26%. Further, the “αS band intensity, Total, Average” value at αS aggregation (sheet S5B) came to 100. Also, on αS aggregation (sheet S5B), the “αS band intensity, Total” value was 95.6 and 105.4 and 99. Also, the “distribution of αS between soluble and insoluble fraction, in words” value on αS aggregation (substoichiometric ratio αS:ligand 1:0.5) was “a significant amount of αS protein was found in the insoluble form”. Further, on αS fibers, the “αS fibers seen in TEM images, in words” value is “no”.

For `Cc1ccc([N+](=O)[O-])c(OCC(=O)O)n1` [NS41], the “ThT signal relative to αS alone (100%)” value in series [1] (100 μM αS, 1×PBS pH 6.5, NS41/αS 2:1) came to 17%. The figures for the “ThT intensity relative to Synuclein alone (=1), Average” value in series [1] (equimolar) and in series [1] (ligand 2 mole Eq.) were 0.2889 and 0.162, respectively. The “ThT intensity relative to Synuclein alone (=1), Trial 1-3” value in series [1] (equimolar, individual trials) was 0.2946 and 0.2756 and 0.2964; in series [1] (ligand 2 mole Eq., individual trials), 0.1784 and 0.1666 and 0.1411. For the same compound, the remaining activity at 100 µM in series [1] was 29%. Further, the “αS protein found in the soluble fraction” value on αS aggregation (100 µM αS, four days, NS41:αS 2:1) came to 73%; on αS aggregation (100 µM αS, four days, ligand:αS 1:1) it was 48%. Besides, the “αS band intensity, Total, Average” value at αS aggregation (sheet S4B, ligand 1 eq.) turned out to be 100; at αS aggregation (sheet S4B, ligand 2 eq.) it was 100. Moreover, the “αS band intensity, Total” value is 95 and 102.5 (2×) on αS aggregation (sheet S4B, ligand 1 eq.); 96 and 102 (2×) at αS aggregation (sheet S4B, ligand 2 eq.). Moreover, at αS fibers, the “αS fibers seen in TEM images, in words” value is “low amount”.

For the compound `NCCc1ccc(O)c(O)c1` [dopamine], the “Motility of worms, UA196+Dopamine” value in the series on UA196 worms (Day 4) is 146 and 123 and 134 and 157; in the series with UA196 worms (Day 5), 129 and 128 and 126 and 106; in the series with UA196 worms (Day 6), 99 and 108 and 117 and 122; in the series on UA196 worms (Day 7), 108 and 102 and 112 and 99; in the series with UA196 worms (Day 8), 108 and 103 and 97 and 100; in the series on UA196 worms (Day 9), 93 and 88 and 92 and 89. Besides, the “Motility of worms, UA196+Dopamine” value in the series with UA196 worms (Day 10) was 87 and 88 and 92 and 89; with UA196 worms (Day 11), 75 and 62 and 83 and 87; in the series on UA196 worms (Day 12), 72 and 83 and 69 and 65; with UA196 worms (Day 13), 51 and 78 and 67 and 62. Also, in the series with UA196 worms (dopamine 2 mM, day two and four), the “motility of UA196 worms treated with dopamine, in words” value was “much higher motility”.
